Reference: paper PMC10143822, “Structural Adaptation of the Single-Stranded DNA-Binding Protein C-Terminal to DNA Metabolizing Partners Guides Inhibitor Design” (Pharmaceutics, 2023)
Like-named read-outs stand apart in the source and are kept apart here. Where a SMILES comes first, the peptide text is derived from it. Where no end group is shown, it is not given here. [ ]: non-standard residue; d: D form. Phe(4-CF3) = N[C@@H](Cc1ccc(C(F)(F)F)cc1)C(=O)O; Phe(3-Cl) = N[C@@H](Cc1cccc(Cl)c1)C(=O)O; Phe(4-Cl) = N[C@@H](Cc1ccc(Cl)cc1)C(=O)O; Phe(4-F) = N[C@@H](Cc1ccc(F)cc1)C(=O)O; NMeF = CN[C@@H](Cc1ccccc1)C(=O)O; NMeI = CC[C@H](C)[C@H](NC)C(=O)O; β3hI = CC[C@H](C)[C@H](N)CC(=O)O; 3Pal = N[C@@H](Cc1cccnc1)C(=O)O; 2Thi = N[C@@H](Cc1cccs1)C(=O)O; NMeD = CN[C@@H](CC(=O)O)C(=O)O; Tle = CC(C)(C)[C@H](N)C(=O)O; β3hD = NC(CC(=O)O)CC(=O)O; Aib = CC(C)(N)C(=O)O

Legend:
ExoI = target: T1, ExoI (Escherichia coli, UniProt P04995); assay: biochemical; type: binding, E. coli
T1 construct: His-tag (cleaved yes); host or cells: E. coli BL21 (DE3) pLysS
Description: (§1) Triplicate measurements were performed using a Clariostar Plus Microplate Reader in 384-well plates for all fluorescence anisotropy (FA) experiments. The settings were 25 °C, excitation at 485 nm, emission at 510 nm, settling time of 0.2 s, and 200 flashes per well.
(§2) Competition fluorescence anisotropy experiments were carried out as follows: protein (0.5 μM either ExoI or RecO) was incubated with 50 nM F-wtSSB peptide and 0–500 μM unlabeled wtSSB (or a variant) peptide for 30 min at room temperature. For direct fluorescence anisotropy measurements, 16 µM ExoI and 7.5 µM RecO were used in the first well. After serial dilution, either 50 nM of F-mSSB or F-sSSB was added to the wells and then incubated for 30 min. Buffers used included 20 mM Tris-HCl (pH 8.0), 100 mM NaCl, 1 mM MgCl2, 1 mM 2-mercaptoethanol, 10% (v/v) glycerol, for ExoI and 20 mM Tris-HCl (pH 8.0), 200 mM NaCl, 1 mM 2-mercaptoethanol, 10% (v/v) glycerol, and 0.01% Triton-X 100 for RecO [37].
(§3) Fluorescence anisotropy values were normalized and are shown as bound fractions (BF, %). BF=r−rmin/λ(rmax−r)+r−rmin, I=2∗PG+S, r=S−PG/I, where r: anisotropy, I: total intensity, P: perpendicular intensity, S: parallel intensity, G: an instrument factor set to 1, BF: ligand fraction bound, and λ=λbound/λunbound=1 .
(§4) Competitive fluorescence anisotropy was analyzed in Origin Pro 9.5, and IC50 values were determined using the Logistic Nonlinear fit function and are shown as plots for each mutated position for each protein in Figures S4 and S6. EC50 values from direct fluorescence anisotropy titrations were plotted in Origin 9.5. Values were determined using the Logistics Nonlinear fit function.

RecO = target: T2, RecO (Escherichia coli, UniProt P0A7H3); assay: biochemical; type: binding; details: 0.5 μM RecO, 50 nM F-wtSSB tracer
T2 construct: His-tag (TEV site) (N, cleaved yes); made in house; host or cells: E. coli Rosetta cells
T2 sequence (P0A7H3 whole entry): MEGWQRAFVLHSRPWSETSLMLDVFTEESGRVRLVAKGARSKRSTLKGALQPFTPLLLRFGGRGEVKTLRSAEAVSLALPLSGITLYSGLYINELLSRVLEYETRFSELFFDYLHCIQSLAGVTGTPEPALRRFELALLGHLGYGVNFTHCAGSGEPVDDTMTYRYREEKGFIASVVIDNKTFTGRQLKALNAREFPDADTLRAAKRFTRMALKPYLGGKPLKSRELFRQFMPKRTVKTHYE
Description: as §1, §2, §3, §4

[1] = 0–500 μM unlabeled peptide, 30 min room temperature, 20 mM Tris-HCl pH 8.0, 200 mM NaCl, 10% glycerol, 0.01% Triton-X 100, 25 °C, triplicate, read-out: IC50 on RecO, competitive fluorescence anisotropy

Compound | IC50 (ExoI) [µM] | IC50 (RecO; [1]) [mM] | IC50 (RecO; bound given in mM, read-out: IC50 on RecO, competitive fluorescence anisotropy (no direct inhibitory effect detected)) [mM]
CC(=O)N[C@@H](CC(=O)O)C(=O)N[C@@H](Cc1ccccc1)C(=O)N[C@@H](CC(=O)O)C(=O)N[C@@H](CC(=O)O)C(=O)N[C@@H](CC(=O)O)C(=O)N[C@H](C(=O)N1CCC[C@H]1C(=O)N[C@@H](Cc1ccccc1)C(=O)O)C(C)(C)C [tBuGly6] (Ac-DFDDD[Tle]PF-OH) | 2.87 ± 0.26 | 0.0104 ± 0.00102 | 
CC[C@H](C)[C@H](NC(=O)[C@H](CC(=O)O)NC(=O)[C@H](CC(=O)O)NC(=O)[C@H](CC(=O)O)NC(=O)[C@H](Cc1ccccc1)NC(=O)[C@H](CC(=O)O)NC(C)=O)C(=O)N1CCC[C@H]1C(=O)N[C@@H](Cc1ccc(F)cc1)C(=O)O [4-F-Phe8] (Ac-DFDDDIP[Phe(4-F)]-OH) | 3.04 ± 0.64 | 0.00407 ± 0.00798 | 
CC[C@H](C)[C@@H](CC(=O)N1CCC[C@H]1C(=O)N[C@@H](Cc1ccccc1)C(=O)O)NC(=O)[C@H](CC(=O)O)NC(=O)[C@H](CC(=O)O)NC(=O)[C@H](CC(=O)O)NC(=O)[C@H](Cc1ccccc1)NC(=O)[C@H](CC(=O)O)NC(C)=O [β3-Ile6] (Ac-DFDDD[β3hI]PF-OH) | 11.28 ± 0.03 | 0.0192 ± 0.00747 | 
CC[C@H](C)[C@H](NC(=O)[C@H](CC(=O)O)NC(=O)[C@H](CC(=O)O)NC(=O)[C@H](CC(=O)O)NC(=O)[C@H](Cc1ccc(C(F)(F)F)cc1)NC(=O)[C@H](CC(=O)O)NC(C)=O)C(=O)N1CCC[C@H]1C(=O)N[C@@H](Cc1ccccc1)C(=O)O [4-CF3-Phe2] (Ac-D[Phe(4-CF3)]DDDIPF-OH) |  | 0.00327 ± 0.00042 | 
CC(=O)N[C@@H](CC(=O)O)C(=O)N[C@@H](Cc1ccccc1)C(=O)N[C@@H](CC(=O)O)C(=O)N[C@@H](CC(=O)O)C(N)=O [DFDD] (Ac-DFDD-NH2) | 312 ± 16.7 |  | > 3
CC[C@H](C)[C@H](NC(=O)[C@H](CC(=O)O)NC(=O)[C@H](CC(=O)O)NC(=O)[C@H](CC(=O)O)NC(=O)[C@H](Cc1cccnc1)NC(=O)[C@H](CC(=O)O)NC(C)=O)C(=O)N1CCC[C@H]1C(=O)N[C@@H](Cc1ccccc1)C(=O)O [3Pal2] (Ac-D[3Pal]DDDIPF-OH) | 7.47 ± 0.88 | 0.0117 ± 0.0008 | 
Ac-DFEDDIPF [Glu3] | 4.03 ± 0.24 | 0.00581 ± 0.00165 | 
CC[C@H](C)[C@H](NC(=O)[C@H](CC(=O)O)NC(=O)[C@H](CC(=O)O)NC(=O)[C@H](CC(=O)O)NC(=O)[C@H](Cc1ccccc1)NC(=O)[C@H](CC(=O)O)NC(C)=O)C(=O)N1CCC[C@H]1C(=O)N[C@@H](Cc1cccs1)C(=O)O [Thi8] (Ac-DFDDDIP[2Thi]-OH) | 7.72 ± 0.51 | 0.00859 ± 0.00726 | 
CC[C@H](C)[C@H](NC(=O)[C@H](CC(=O)O)NC(=O)[C@H](CC(=O)O)NC(=O)[C@H](CC(=O)O)NC(=O)[C@H](Cc1cccs1)NC(=O)[C@H](CC(=O)O)NC(C)=O)C(=O)N1CCC[C@H]1C(=O)N[C@@H](Cc1ccccc1)C(=O)O [Thi2] (Ac-D[2Thi]DDDIPF-OH) | 4.22 ± 0.81 | 0.00527 ± 0.00028 | 
Ac-DFDEDIPF [Glu4] | 3.58 ± 0.11 | 0.00568 ± 0.00059 | 
CC[C@H](C)[C@H](NC(=O)[C@H](CC(=O)O)NC(=O)[C@H](CC(=O)O)NC(=O)[C@H](CC(=O)O)NC(=O)[C@H](Cc1ccccc1)NC(=O)[C@H](CC(=O)O)N(C)C(C)=O)C(=O)N1CCC[C@H]1C(=O)N[C@@H](Cc1ccccc1)C(=O)O [NM-Asp1] (Ac-[NMeD]FDDDIPF-OH) | 2.17 ± 0.15 | 0.0051 ± 0.00064 | 
Ac-DFDNDIPF [Asn4] | 6.02 ± 0.3 | 0.0157 ± 0.00354 | 
CC(=O)N[C@@H](CC(=O)O)C(=O)N[C@@H](Cc1ccc(Cl)cc1)C(=O)N(C)[C@@H](CC(=O)O)C(=O)N[C@@H](CC(=O)O)C(=O)N[C@@H](CCC(=O)O)C(=O)N[C@@H](CC(C)C)C(=O)N1CCC[C@H]1C(=O)N[C@@H](Cc1cccc(Cl)c1)C(=O)O [R1-sSSB-Ct] (Ac-D[Phe(4-Cl)][NMeD]DELP[Phe(3-Cl)]-OH) |  | 0.00333 | 
CC[C@H](C)[C@H](NC(=O)[C@H](CC(=O)O)NC(=O)[C@@H](CC(=O)O)NC(=O)[C@H](CC(=O)O)NC(=O)[C@H](Cc1ccccc1)NC(=O)[C@H](CC(=O)O)NC(C)=O)C(=O)N1CCC[C@H]1C(=O)N[C@@H](Cc1ccccc1)C(=O)O [D-Asp4] (Ac-DFD[dD]DIPF-OH) | 3.08 ± 0.07 | 0.00592 ± 0.00091 | 
Ac-DFNDDIPF [Asn3] | 6.36 ± 0.36 | 0.0142 ± 0.0018 | 
CC[C@H](C)[C@H](NC(=O)C[C@H](CC(=O)O)NC(=O)[C@H](CC(=O)O)NC(=O)[C@H](CC(=O)O)NC(=O)[C@H](Cc1ccccc1)NC(=O)[C@H](CC(=O)O)NC(C)=O)C(=O)N1CCC[C@H]1C(=O)N[C@@H](Cc1ccccc1)C(=O)O [β3-Asp5] (Ac-DFDD[β3hD]IPF-OH) | 13.9 ± 6.11 | 0.00591 ± 0.00068 | 
CC[C@H](C)[C@H](NC(=O)[C@H](CC(=O)O)NC(=O)[C@H](CC(=O)O)NC(=O)[C@H](CC(=O)O)NC(=O)[C@H](Cc1ccccc1)NC(=O)[C@H](CC(=O)O)NC(C)=O)C(=O)N1CCC[C@H]1C(=O)N(C)[C@@H](Cc1ccccc1)C(=O)O [NM-Phe8] (Ac-DFDDDIP[NMeF]-OH) |  | 0.0647 ± 0.0189 | 
CC[C@H](C)[C@H](NC(=O)[C@H](CC(=O)O)NC(=O)[C@H](CC(=O)O)NC(=O)[C@H](CC(=O)O)NC(=O)[C@H](Cc1ccc(Cl)cc1)NC(=O)[C@H](CC(=O)O)NC(C)=O)C(=O)N1CCC[C@H]1C(=O)N[C@@H](Cc1ccccc1)C(=O)O [4-Cl-Phe2] (Ac-D[Phe(4-Cl)]DDDIPF-OH) |  | 0.00238 ± 0.00027 | 
CC[C@H](C)[C@H](NC(=O)[C@H](CC(=O)O)NC(=O)[C@H](CC(=O)O)NC(=O)[C@H](CC(=O)O)NC(=O)[C@H](Cc1cccc(Cl)c1)NC(=O)[C@H](CC(=O)O)NC(C)=O)C(=O)N1CCC[C@H]1C(=O)N[C@@H](Cc1ccccc1)C(=O)O [3-Cl-Phe2] (Ac-D[Phe(3-Cl)]DDDIPF-OH) | 2.03 ± 0.51 | 0.00344 ± 0.00014 | 
CC[C@H](C)[C@H](NC(=O)[C@H](CC(=O)O)NC(=O)C[C@H](CC(=O)O)NC(=O)[C@H](CC(=O)O)NC(=O)[C@H](Cc1ccccc1)NC(=O)[C@H](CC(=O)O)NC(C)=O)C(=O)N1CCC[C@H]1C(=O)N[C@@H](Cc1ccccc1)C(=O)O [β3-Asp4] (Ac-DFD[β3hD]DIPF-OH) | 1.54 ± 0.13 | 0.0196 ± 0.00278 | 
CC[C@H](C)[C@H](NC(=O)[C@H](CC(=O)O)NC(=O)[C@H](CC(=O)O)NC(=O)[C@H](CC(=O)O)NC(=O)[C@H](Cc1ccccc1)NC(=O)C[C@H](CC(=O)O)NC(C)=O)C(=O)N1CCC[C@H]1C(=O)N[C@@H](Cc1ccccc1)C(=O)O [β3-Asp1] (Ac-[β3hD]FDDDIPF-OH) | 4.47 ± 0.25 | 0.00803 ± 0.0004 | 
CC[C@H](C)[C@H](NC(=O)[C@H](CC(=O)O)NC(=O)[C@H](CC(=O)O)NC(=O)[C@H](CC(=O)O)NC(=O)[C@H](Cc1ccccc1)NC(=O)[C@H](CC(=O)O)NC(C)=O)C(=O)N1CCC[C@@H]1C(=O)N[C@@H](Cc1ccccc1)C(=O)O [D-Pro7] (Ac-DFDDDI[dP]F-OH) | 61.5 ± 16.2 | 0.0116 ± 0.0109 | 
CC(=O)N[C@@H](CC(=O)O)C(=O)N[C@@H](Cc1ccccc1)C(=O)N[C@@H](CC(=O)O)C(=O)N[C@@H](CC(=O)O)C(=O)N[C@@H](CC(=O)O)C(=O)NC(C)(C)C(=O)N1CCC[C@H]1C(=O)N[C@@H](Cc1ccccc1)C(=O)O [Aib6] (Ac-DFDDD[Aib]PF-OH) | 27.6 ± 7.9 |  | 
CC[C@H](C)[C@H](NC(=O)[C@H](CC(=O)O)NC(=O)[C@H](CC(=O)O)NC(=O)[C@H](CC(=O)O)NC(=O)[C@H](Cc1ccc(F)cc1)NC(=O)[C@H](CC(=O)O)NC(C)=O)C(=O)N1CCC[C@H]1C(=O)N[C@@H](Cc1ccccc1)C(=O)O [4-F-Phe2] (Ac-D[Phe(4-F)]DDDIPF-OH) |  | 0.00305 ± 0.00028 | 
CC[C@H](C)[C@@H](C(=O)N1CCC[C@H]1C(=O)N[C@@H](Cc1ccccc1)C(=O)O)N(C)C(=O)[C@H](CC(=O)O)NC(=O)[C@H](CC(=O)O)NC(=O)[C@H](CC(=O)O)NC(=O)[C@H](Cc1ccccc1)NC(=O)[C@H](CC(=O)O)NC(C)=O [NM-Ile6] (Ac-DFDDD[NMeI]PF-OH) | 3.95 ± 0.54 |  | 
CC[C@@H](C)[C@@H](NC(=O)[C@H](CC(=O)O)NC(=O)[C@H](CC(=O)O)NC(=O)[C@H](CC(=O)O)NC(=O)[C@H](Cc1ccccc1)NC(=O)[C@H](CC(=O)O)NC(C)=O)C(=O)N1CCC[C@H]1C(=O)N[C@@H](Cc1ccccc1)C(=O)O [D-Ile6] (Ac-DFDDD[dI]PF-OH) | 56 ± 18.4 |  | 
